From PubChem BioAssay AID248 (DTP/NCI, 2004)
“And” between values parts separate entries of the source, which are not always exact repeats. Equal values may be shown once. Toxic doses and inconclusive results are not listed. Cut-off read from the data, not from the text of the source: active = T/C of 150% or more; inactive = T/C below 125%.

System: L1210 leukemia ip in BDF1 mice, survival T/C
Assay: NCI In Vivo Anticancer Drug Screen. Data for tumor model L1210 Leukemia (intraperitoneal) in B6D2F1 (BDF1) mice
Details: endpoint: mean survival time, higher = longer survival
In short: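 Each compound was tested against a transplantable tumor grown in mice. The endpoint was survival, with treated animals benchmarked against vehicle controls as a simple ratio.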

[1] = dose: 100.0 mg/kg/injection, schedule: Q01DX009 (ip), vehicle: saline
[2] = dose: 100.0 mg/kg/injection, schedule: Q04DX003 (ip), vehicle: saline
[3] = dose: 200.0 mg/kg/injection, schedule: Q01DX009 (ip), vehicle: saline
[4] = dose: 200.0 mg/kg/injection, schedule: Q04DX003 (ip), vehicle: saline
[5] = dose: 400.0 mg/kg/injection, schedule: Q01DX009 (ip), vehicle: saline
[6] = dose: 400.0 mg/kg/injection, schedule: Q04DX003 (ip), vehicle: saline
[7] = dose: 100.0 mg/kg/injection, schedule: Q01DX009 (ip), vehicle: Klucel (hydroxypropylcellulose) (HPC)
[8] = dose: 200.0 mg/kg/injection, schedule: Q01DX009 (ip), vehicle: Klucel (hydroxypropylcellulose) (HPC)
[9] = dose: 400.0 mg/kg/injection, schedule: Q01DX009 (ip), vehicle: Klucel (hydroxypropylcellulose) (HPC)
[10] = dose: 100.0 mg/kg/injection, schedule: Q04DX003 (ip), vehicle: Klucel (hydroxypropylcellulose) (HPC)
[11] = dose: 200.0 mg/kg/injection, schedule: Q04DX003 (ip), vehicle: Klucel (hydroxypropylcellulose) (HPC)
[12] = dose: 400.0 mg/kg/injection, schedule: Q04DX003 (ip), vehicle: Klucel (hydroxypropylcellulose) (HPC)

Measured: T/C

COc1cc(C(=O)OC2CC34CCNC35CC(OC5(OC)C2O)c2cc3c(cc24)OCO3)ccc1O (centres undefined)
inactive: dose: 0.25 mg/kg/injection, schedule: Q01DX015 (ip), vehicle: carboxymethylcellulose (CMC) 100 % of control | dose: 0.5 mg/kg/injection, schedule: Q01DX015 (ip), vehicle: carboxymethylcellulose (CMC) 100 % of control | dose: 0.75 mg/kg/injection, schedule: Q01DX015 (ip), vehicle: carboxymethylcellulose (CMC) 103 % of control | dose: 1.0 mg/kg/injection, schedule: Q01DX009 (ip), vehicle: carboxymethylcellulose (CMC) 95 % of control | dose: 1.0 mg/kg/injection, schedule: Q01DX015 (ip), vehicle: carboxymethylcellulose (CMC) 104 % of control and 108 % of control | dose: 1.25 mg/kg/injection, schedule: Q01DX015 (ip), vehicle: carboxymethylcellulose (CMC) 96 % of control | dose: 1.5 mg/kg/injection, schedule: Q01DX015 (ip), vehicle: carboxymethylcellulose (CMC) 102 % of control | dose: 1.75 mg/kg/injection, schedule: Q01DX015 (ip), vehicle: carboxymethylcellulose (CMC) 98 % of control | dose: 2.0 mg/kg/injection, schedule: Q01DX009 (ip), vehicle: carboxymethylcellulose (CMC) 92 % of control | dose: 2.0 mg/kg/injection, schedule: Q01DX015 (ip), vehicle: carboxymethylcellulose (CMC) 93 % of control | dose: 2.5 mg/kg/injection, schedule: Q01DX015 (ip), vehicle: carboxymethylcellulose (CMC) 96 % of control

CCCCCCP(=O)(CCCC)CCCC
inactive: dose: 25.0 mg/kg/injection, schedule: Q04DX002 (ip), vehicle: Klucel (hydroxypropylcellulose) (HPC) 94 % of control | dose: 50.0 mg/kg/injection, schedule: Q04DX002 (ip), vehicle: Klucel (hydroxypropylcellulose) (HPC) 109 % of control | dose: 100.0 mg/kg/injection, schedule: Q04DX002 (ip), vehicle: Klucel (hydroxypropylcellulose) (HPC) 103 % of control and 109 % of control

CC(C)SC(=S)Nc1ccc(Cl)c(Cl)c1
inactive: dose: 30.0 mg/kg/injection, schedule: Q04DX003 (ip), vehicle: saline 95 % of control | dose: 60.0 mg/kg/injection, schedule: Q04DX003 (ip), vehicle: saline 98 % of control | dose: 120.0 mg/kg/injection, schedule: Q04DX003 (ip), vehicle: saline 95 % of control

O=C1OC(=O)C23CCC(CC2)C2CCC13CC2
inactive: [1] 97 % of control | [2] 110 % of control | [3] 98 % of control | [4] 110 % of control | [5] 93 % of control | [6] 109 % of control

CN(C)C(=O)c1ccc[n+](CC(=O)Nc2ccc(Cl)cc2)c1
inactive: [2] 98 % of control

Cc1cc(OC(=O)Nc2cc(C(F)(F)F)ccc2Cl)ccc1Cl
inactive: [7] 98 % of control | [8] 104 % of control | [9] 95 % of control

N=C(N)c1ccc(C(=N)N)cc1
inactive: dose: 25.0 mg/kg/injection, schedule: Q01DX009 (ip), vehicle: water 95 % of control | dose: 50.0 mg/kg/injection, schedule: Q01DX009 (ip), vehicle: water 95 % of control and 99 % of control | dose: 100.0 mg/kg/injection, schedule: Q01DX009 (ip), vehicle: water 97 % of control and 103 % of control

COC(=O)c1ccc(OC(=S)N(C)C)cc1
inactive: [10] 93 % of control | [11] 98 % of control | [12] 95 % of control

COc1ccc(C(CCCC(=O)O)C(CC(=O)O)C(=O)O)cc1 (centres undefined)
inactive: dose: 75.0 mg/kg/injection, schedule: Q04DX003 (ip), vehicle: saline 96 % of control | dose: 150.0 mg/kg/injection, schedule: Q04DX003 (ip), vehicle: saline 103 % of control | dose: 300.0 mg/kg/injection, schedule: Q04DX003 (ip), vehicle: saline 112 % of control

CCC(C)NC(=O)Nc1ccccc1Cl (centres undefined)
inactive: [7] 101 % of control | [8] 95 % of control | [9] 100 % of control

NCc1ccc[n+]([O-])c1
inactive: dose: 12.5 mg/kg/injection, schedule: Q04DX002 (ip), vehicle: saline with Tween-80 97 % of control | dose: 25.0 mg/kg/injection, schedule: Q04DX002 (ip), vehicle: saline with Tween-80 105 % of control | dose: 50.0 mg/kg/injection, schedule: Q04DX002 (ip), vehicle: saline with Tween-80 102 % of control and 118 % of control | dose: 200.0 mg/kg/injection, schedule: Q04DX002 (ip), vehicle: saline with Tween-80 89 % of control

C#CCOCC1CNC(=O)O1 (centres undefined)
inactive: dose: 25.0 mg/kg/injection, schedule: Q01DX009 (ip), vehicle: saline 95 % of control | dose: 25.0 mg/kg/injection, schedule: Q04DX003 (ip), vehicle: saline 103 % of control | dose: 50.0 mg/kg/injection, schedule: Q01DX009 (ip), vehicle: saline 96 % of control | dose: 50.0 mg/kg/injection, schedule: Q04DX003 (ip), vehicle: saline 105 % of control | [1] 96 % of control | [2] 97 % of control | [3] 101 % of control | [4] 100 % of control | [5] 91 % of control | [6] 105 % of control

CSc1ccc(NC(=O)Nc2cc(C(C)C)ccc2C)cc1
inactive: [7] 103 % of control | [8] 104 % of control | [9] 98 % of control

O=S(=O)(O)C(Cl)c1ccccc1 (centres undefined)
inactive: dose: 100.0 mg/kg/injection, schedule: Q04DX002 (ip), vehicle: saline 105 % of control | dose: 200.0 mg/kg/injection, schedule: Q04DX002 (ip), vehicle: saline 102 % of control | dose: 400.0 mg/kg/injection, schedule: Q04DX002 (ip), vehicle: saline 98 % of control

Nc1nc(NCCCc2ccccc2)cc(=O)[nH]1
inactive: dose: 25.0 mg/kg/injection, schedule: Q04DX003 (ip), vehicle: saline with Tween-80 98 % of control | dose: 50.0 mg/kg/injection, schedule: Q04DX003 (ip), vehicle: saline with Tween-80 92 % of control

CCOc1ccccc1NC(c1ccc(OC)cc1)P(=O)(c1ccccc1)c1ccccc1 (centres undefined)
inactive: [10] 101 % of control | [11] 101 % of control | [12] 92 % of control

CC1CN=C(c2cccc(NC(=O)c3ccc(C(=O)Nc4cccc(C5=NCC(C)N5)c4)c(N)c3)c2)N1 (centres undefined)
inactive: dose: 1.25 mg/kg/injection, schedule: Q01DX Z (ip), vehicle: water 91 % of control | dose: 2.5 mg/kg/injection, schedule: Q01DX Z (ip), vehicle: water 89 % of control

COc1ccc(COC(=O)Nc2ccc(Br)cc2)cc1
inactive: [7] 101 % of control | [8] 98 % of control | [9] 103 % of control

O=[N+]([O-])c1cccc(-[n+]2cc([O-])on2)c1
inactive: dose: 50.0 mg/kg/injection, schedule: Q01DX009 (ip), vehicle: Klucel (hydroxypropylcellulose) (HPC) 94 % of control | [10] 105 % of control | [11] 96 % of control

C1CCC2(CC1)OOC1(CCCCC1)OOC1(CCCC1)OO2
inactive: dose: 50.0 mg/kg/injection, schedule: Q01DX009 (ip), vehicle: saline with Tween-80 104 % of control | dose: 100.0 mg/kg/injection, schedule: Q01DX009 (ip), vehicle: saline with Tween-80 96 % of control | dose: 200.0 mg/kg/injection, schedule: Q01DX009 (ip), vehicle: saline with Tween-80 110 % of control

CCCCCCCCCCC(=O)N(CC)CC
inactive: dose: 100.0 mg/kg/injection, schedule: Q01DX009 (ip), vehicle: carboxymethylcellulose (CMC) 97 % of control and 92 % of control | dose: 100.0 mg/kg/injection, schedule: Q04DX002 (ip), vehicle: carboxymethylcellulose (CMC) 94 % of control | dose: 200.0 mg/kg/injection, schedule: Q01DX009 (ip), vehicle: carboxymethylcellulose (CMC) 97 % of control and 100 % of control | dose: 200.0 mg/kg/injection, schedule: Q04DX002 (ip), vehicle: carboxymethylcellulose (CMC) 96 % of control | dose: 400.0 mg/kg/injection, schedule: Q01DX009 (ip), vehicle: carboxymethylcellulose (CMC) 96 % of control | dose: 400.0 mg/kg/injection, schedule: Q04DX002 (ip), vehicle: carboxymethylcellulose (CMC) 100 % of control

c1ccc2nc3c(cc2c1)NCC3
inactive: dose: 100.0 mg/kg/injection, schedule: Q01DX001 (ip), vehicle: Klucel (hydroxypropylcellulose) (HPC) 95 % of control | dose: 200.0 mg/kg/injection, schedule: Q01DX001 (ip), vehicle: Klucel (hydroxypropylcellulose) (HPC) 97 % of control | dose: 400.0 mg/kg/injection, schedule: Q01DX001 (ip), vehicle: Klucel (hydroxypropylcellulose) (HPC) 109 % of control

Cc1[nH]c(N)nc(=S)c1CCCN(C(=O)c1ccccc1)c1ccccc1
inactive: dose: 37.5 mg/kg/injection, schedule: Q01DX001 (ip), vehicle: Klucel (hydroxypropylcellulose) (HPC) 90 % of control | dose: 150.0 mg/kg/injection, schedule: Q01DX001 (ip), vehicle: Klucel (hydroxypropylcellulose) (HPC) 90 % of control

O=C1OC2CC3CC2C1C3C(=O)N1CCOCC1 (centres undefined)
inactive: [2] 100 % of control and 96 % of control | [4] 91 % of control and 98 % of control | [6] 100 % of control and 98 % of control
